The values below come from US20230190687A1, “SODIUM BUTYRATE FOR USE IN THE PREVENTION OR TREATMENT OF RHINOVIRUS INFECTION” (priority 2020, published 2023).

For experiment [1], the system named is Rhinovirus. The note with it: exogenous LL-37, cell models; Casanova et al 2020; cited from earlier work.
For experiment [2], the system named is influenza infection. The note with it: exogenous LL-37, mouse models of influenza infection; Barlow et al 2011; cited from earlier work.
Experiment [3] concerns HRV1B Rhinovirus. Put plainly: Conditioned media of treated THP-1 macrophages incubated with HRV1B Rhinovirus; measurable live virus titrated. It counts as cell-based. The note with it: then incubated with HRV1B, compared with control (distilled water), n=3. The procedure:
With reference to FIG. 1, an experiment was carried out to treat leukocytes (the human monocytic THP-1 macrophage cell line differentiated into macrophages) with sodium butyrate, Vitamin D, or with a combination of sodium butyrate and Vitamin D.
The leukocyte cells were incubated for a period of time to allow them to release proteins into the surrounding cell culture media (referred to as ‘conditioned media’). The conditioned media was then incubated with HRV1B Rhinovirus. The leukocyte cells were incubated with a solution comprising 0.5 mM sodium butyrate, a solution comprising 0.5 mM Vitamin D, and with a solution comprising both 0.5 mM sodium butyrate and 0.5 mM Vitamin D.
The data shown is an average of n=3 independent biological replicates (the titration is an average of ten fold reductions quantified over the three replicates).

On to “LL-37: a human member of the cathelicidin family (LLGDFFRKSKEKIGKEFKRIVQRIKDFLRNLVPRTES; Antibacterial peptide LL-37; UniProt P49913 134-170, looked up)”, for which the “Rhinovirus induced inflammatory cytokine release” value in experiment [1] is “reduce Rhinovirus induced inflammatory cytokine release”. Moreover, in experiment [2], the inflammation entry is “decrease inflammation” and the survival rates result is reported as “enhanced survival rates”. Take `CCCC(=O)[O-].[Na+]` [sodium butyrate]: in experiment [3] (conditioned media of THP-1 macrophages incubated with 0.5 mM sodium butyrate), the “reduction in measurable live virus” value is reported as 75-80%. For the compound Vitamin D, in experiment [3] (conditioned media of THP-1 macrophages incubated with 0.5 mM Vitamin D, or 0.5 mM sodium butyrate and 0.5 mM Vitamin D), the “reduction in measureable live virus (in words)” value is given as “significant reduction”.
